Test results taken from PubChem BioAssay (NCI).
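Abbreviation: GI50, concentration required for 50% inhibition of growth. TGI: concentration producing complete growth inhibition.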

Tests used:
Test in all cases: NCI tumour cell line growth inhibition, 384-well format
[1] = system: BT-549 breast
[2] = system: MDA-MB-435 melanoma
[3] = system: PC-3 prostate
[4] = system: RXF 393 renal
[5] = system: HOP-92 NSCLC
[6] = system: LOX IMVI melanoma
[7] = system: TK-10 renal
[8] = system: NCI-H522 lung
[9] = system: UO-31 renal
[10] = system: SW-620 colon
[11] = system: HS 578T breast
[12] = system: HCT-15 colon
[13] = system: MALME-3M melanoma
[14] = system: 786-0 renal
[15] = system: SF-268 CNS
[16] = system: NCI-H460 NSCLC
[17] = system: NCI-H226 lung
[18] = system: OVCAR-4 ovarian
[19] = system: RPMI-8226 leukemia
[20] = system: HT29 colon
[21] = system: T-47D breast
[22] = system: COLO 205 colon
[23] = system: NCI-H23 lung
[24] = system: EKVX NSCLC
[25] = system: SNB-75 CNS
[26] = system: K-562 leukemia
[27] = system: KM12 colon
[28] = system: HL-60(TB) leukemia
[29] = system: SF-539 CNS
[30] = system: NCI-H322M lung
[31] = system: SNB-19 CNS
[32] = system: CCRF-CEM leukemia
[33] = system: UACC-257 melanoma
[34] = system: NCI/ADR-RES ovarian
[35] = system: M14 melanoma
[36] = system: OVCAR-8 ovarian
[37] = system: A498 renal
[38] = system: ACHN renal
[39] = system: OVCAR-5 ovarian
[40] = system: SN12C renal
[41] = system: HCC-2998 colon
[42] = system: OVCAR-3 ovarian
[43] = system: MOLT-4 leukemia
[44] = system: DU-145 prostate
[45] = system: SR leukemia
[46] = system: SF-295 CNS
[47] = system: IGROV1 ovarian
[48] = system: A549 NSCLC
[49] = system: UACC-62 melanoma
[50] = system: HOP-62 NSCLC
[51] = system: SK-MEL-5 melanoma
[52] = system: MDA-MB-468 breast
[53] = system: SK-OV-3 ovarian
[54] = system: CAKI-1 renal
[55] = system: MDA-MB-231 breast
[56] = system: MCF7 breast
[57] = system: SK-MEL-28 melanoma
[58] = system: HCT-116 colon
[59] = system: U251 glioblastoma

## Cc1cc(-c2ccc(C3C(C#N)=C(N)Oc4c3c(=O)oc3ccccc43)cc2)cnc1F (stereo not drawn)
[1]
  GI50: 27.9 µM
  TGI: > 100 µM
[2]
  GI50: 89 µM
  TGI: > 100 µM
[3]
  GI50: 53.1 µM
  TGI: > 100 µM
[4]
  GI50: 17.4 µM
  TGI: 32.2 µM
[5]
  GI50: 13.9 µM
  TGI: 39.7 µM
[6]
  GI50: 21.9 µM
  TGI: 45.4 µM
[7]
  GI50: 30.3 µM
  TGI: 82.1 µM
[8]
  GI50: 17.5 µM
  TGI: 35.4 µM
[9]
  GI50: 30.1 µM
  TGI: > 100 µM
[10]
  GI50: 58.3 µM
  TGI: > 100 µM
[11]
  GI50: 29.1 µM
  TGI: 79.9 µM
[12]
  GI50: 18.9 µM
  TGI: 39.3 µM
[13]
  GI50: 47.7 µM
  TGI: > 100 µM
[14]
  GI50: 43.2 µM
  TGI: > 100 µM
[15]
  GI50: 50.1 µM
  TGI: > 100 µM
[16]
  GI50: 37.1 µM
  TGI: > 100 µM
[17]
  GI50: 18.4 µM
  TGI: 59.3 µM
[18]
  GI50: 33.9 µM
  TGI: > 100 µM
[19]
  GI50: 14 µM
  TGI: 33.5 µM
[20]
  GI50: 25.1 µM
  TGI: 65 µM
[21]
  GI50: 46.4 µM
  TGI: > 100 µM
[22]
  GI50: 64.6 µM
  TGI: > 100 µM
[23]
  GI50: 29.6 µM
  TGI: > 100 µM
[24]
  GI50: 43.7 µM
  TGI: > 100 µM
[25]
  GI50: 40.9 µM
  TGI: > 100 µM
[26]
  GI50: 33.9 µM
  TGI: > 100 µM
[27]
  GI50: > 100 µM
  TGI: > 100 µM
[28]
  GI50: 24.7 µM
  TGI: 44.9 µM
[29]
  GI50: 24.8 µM
  TGI: 55.6 µM
[30]
  GI50: 25.4 µM
  TGI: 67 µM
[31]
  GI50: 62.9 µM
  TGI: > 100 µM
[32]
  GI50: 17.5 µM
  TGI: 33.7 µM
[33]
  GI50: 58.1 µM
  TGI: > 100 µM
[34]
  GI50: 40 µM
  TGI: > 100 µM
[35]
  GI50: 90.2 µM
  TGI: > 100 µM
[36]
  GI50: 38.5 µM
  TGI: > 100 µM
[37]
  GI50: 31.3 µM
  TGI: > 100 µM
[38]
  GI50: 42.6 µM
  TGI: > 100 µM
[39]
  GI50: 37.4 µM
  TGI: > 100 µM
[40]
  GI50: 47.7 µM
  TGI: > 100 µM
[41]
  GI50: 29.7 µM
  TGI: 80.3 µM
[42]
  GI50: 26.7 µM
  TGI: 57.1 µM
[43]
  GI50: 15 µM
  TGI: 28.4 µM
[44]
  GI50: 39.3 µM
  TGI: > 100 µM
[45]
  GI50: 17.1 µM
  TGI: 32.2 µM
[46]
  GI50: 46.9 µM
  TGI: > 100 µM
[47]
  GI50: 42.5 µM
  TGI: > 100 µM
[48]
  GI50: 54.5 µM
  TGI: > 100 µM
[49]
  GI50: 40.1 µM
  TGI: > 100 µM
[50]
  GI50: 34.7 µM
  TGI: > 100 µM
[51]
  GI50: 29.8 µM
  TGI: 78.1 µM
[52]
  GI50: 24 µM
  TGI: 49.2 µM
[53]
  GI50: 45.9 µM
  TGI: > 100 µM
[54]
  GI50: 43.6 µM
  TGI: > 100 µM
[55]
  GI50: 39.7 µM
  TGI: > 100 µM
[56]
  GI50: 38 µM
  TGI: > 100 µM
[57]
  GI50: > 100 µM
  TGI: > 100 µM

## O=C(C1CC1)N1CC[C@@H](Cc2n[nH]c(=O)n2-c2ccc(-c3ccc4occc4c3)cc2)C1
[1]
  GI50: 13.3 µM
  TGI: 72.4 µM
[2]
  GI50: 31.2 µM
  TGI: > 100 µM
[3]
  GI50: 42.9 µM
  TGI: > 100 µM
[4]
  GI50: 20.9 µM
  TGI: 59.4 µM
[5]
  GI50: 37.5 µM
  TGI: > 100 µM
[6]
  GI50: 16.9 µM
  TGI: 38.6 µM
[7]
  GI50: 21.7 µM
  TGI: 60.1 µM
[8]
  GI50: 25.3 µM
  TGI: 86.6 µM
[9]
  GI50: 14.9 µM
  TGI: > 100 µM
[10]
  GI50: 57.6 µM
  TGI: > 100 µM
[11]
  GI50: 32.5 µM
  TGI: > 100 µM
[12]
  GI50: 34.3 µM
  TGI: > 100 µM
[13]
  GI50: 30.9 µM
  TGI: 96.6 µM
[58]
  GI50: 20.2 µM
  TGI: 48 µM
[14]
  GI50: 25.6 µM
  TGI: > 100 µM
[15]
  GI50: 26 µM
  TGI: > 100 µM
[16]
  GI50: 29.7 µM
  TGI: > 100 µM
[17]
  GI50: 18.5 µM
  TGI: 58.8 µM
[18]
  GI50: 33.3 µM
  TGI: > 100 µM
[19]
  GI50: 0.066 µM
  TGI: 17.9 µM
[20]
  GI50: 29.2 µM
  TGI: > 100 µM
[21]
  GI50: 29.8 µM
  TGI: > 100 µM
[22]
  GI50: 42.2 µM
  TGI: > 100 µM
[23]
  GI50: 29.6 µM
  TGI: > 100 µM
[24]
  GI50: 22.9 µM
  TGI: > 100 µM
[25]
  GI50: 34.8 µM
  TGI: > 100 µM
[26]
  GI50: 13.5 µM
  TGI: 27.2 µM
[27]
  GI50: 39.6 µM
  TGI: > 100 µM
[28]
  GI50: 0.0567 µM
  TGI: 21.8 µM
[29]
  GI50: 53.5 µM
  TGI: > 100 µM
[30]
  GI50: 36.2 µM
  TGI: > 100 µM
[31]
  GI50: 50.1 µM
  TGI: > 100 µM
[33]
  GI50: 38.5 µM
  TGI: 91.3 µM
[34]
  GI50: 22.3 µM
  TGI: 85.1 µM
[35]
  GI50: 60.9 µM
  TGI: > 100 µM
[36]
  GI50: 36.4 µM
  TGI: > 100 µM
[37]
  GI50: 29.4 µM
  TGI: > 100 µM
[38]
  GI50: 24.6 µM
  TGI: > 100 µM
[59]
  GI50: 28 µM
  TGI: > 100 µM
[40]
  GI50: 30 µM
  TGI: > 100 µM
[41]
  GI50: 25.5 µM
  TGI: > 100 µM
[42]
  GI50: 21.6 µM
  TGI: 59 µM
[43]
  GI50: 11.5 µM
  TGI: 23.7 µM
[44]
  GI50: 35.3 µM
  TGI: > 100 µM
[45]
  GI50: 24.6 µM
  TGI: 64.4 µM
[46]
  GI50: 18.1 µM
  TGI: 57.5 µM
[47]
  GI50: 34.3 µM
  TGI: > 100 µM
[48]
  GI50: 23.4 µM
  TGI: > 100 µM
[49]
  GI50: 34.2 µM
  TGI: > 100 µM
[50]
  GI50: 19.1 µM
  TGI: 75.7 µM
[51]
  GI50: 15.7 µM
  TGI: 29.6 µM
[52]
  GI50: 15.5 µM
  TGI: 45.5 µM
[53]
  GI50: 33.9 µM
  TGI: > 100 µM
[54]
  GI50: 32.4 µM
  TGI: > 100 µM
[55]
  GI50: 39.6 µM
  TGI: > 100 µM
[56]
  GI50: 19.9 µM
  TGI: 92.4 µM
[57]
  GI50: 31.1 µM
  TGI: > 100 µM
